Assay results: ChEMBL document CHEMBL5465560, “Selectivity Literature for EUbOPEN Chemogenomic Library” (2024)

What was measured:
[1] = biological target: Calcium/calmodulin-dependent protein kinase kinase 2 (Homo sapiens) (UniProt Q96RR4); experiment: Selectivity interaction (Kinase panel (literature)) EUB0001199aCl CAMKK2; conditions: at 1 µM
[2] = biological target: T1, Serine/threonine-protein kinase D1 (Homo sapiens) (UniProt Q15139); experiment: Selectivity interaction (KinomeScan (DiscoverX)) EUB0000666a PRKD1; conditions: at 10 µM
T1 sequence (whole entry): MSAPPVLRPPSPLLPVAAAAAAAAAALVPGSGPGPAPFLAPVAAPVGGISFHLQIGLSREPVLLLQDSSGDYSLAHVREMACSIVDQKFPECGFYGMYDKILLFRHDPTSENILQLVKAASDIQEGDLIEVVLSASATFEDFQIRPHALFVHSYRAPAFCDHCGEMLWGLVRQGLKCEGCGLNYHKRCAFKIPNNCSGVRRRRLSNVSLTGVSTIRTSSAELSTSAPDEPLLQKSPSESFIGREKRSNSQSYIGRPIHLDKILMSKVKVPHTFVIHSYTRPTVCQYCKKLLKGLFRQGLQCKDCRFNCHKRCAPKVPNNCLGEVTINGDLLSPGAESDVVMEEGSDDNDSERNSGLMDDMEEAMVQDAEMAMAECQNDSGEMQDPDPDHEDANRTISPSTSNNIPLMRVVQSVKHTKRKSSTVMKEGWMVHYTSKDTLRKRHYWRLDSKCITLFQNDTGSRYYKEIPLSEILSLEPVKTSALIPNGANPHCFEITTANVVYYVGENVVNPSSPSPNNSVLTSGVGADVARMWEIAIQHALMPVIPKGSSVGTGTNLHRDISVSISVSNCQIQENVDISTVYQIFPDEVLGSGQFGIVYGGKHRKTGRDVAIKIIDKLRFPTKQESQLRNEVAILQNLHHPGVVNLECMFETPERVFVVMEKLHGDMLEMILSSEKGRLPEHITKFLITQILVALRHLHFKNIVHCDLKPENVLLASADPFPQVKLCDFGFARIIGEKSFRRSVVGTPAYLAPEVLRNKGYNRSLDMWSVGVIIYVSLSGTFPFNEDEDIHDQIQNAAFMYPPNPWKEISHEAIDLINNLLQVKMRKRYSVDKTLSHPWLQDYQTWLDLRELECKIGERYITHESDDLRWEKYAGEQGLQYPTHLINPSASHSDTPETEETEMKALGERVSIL

[3] = biological target: Tyrosine-protein kinase JAK2 (Homo sapiens, UniProt O60674); experiment: Selectivity interaction (NanoBRET assay (HEK293T cells)) EUB0001558a JAK2; assay type: cell-based, HEK-293T
Tyrosine-protein kinase JAK2, sequence (O60674 whole entry): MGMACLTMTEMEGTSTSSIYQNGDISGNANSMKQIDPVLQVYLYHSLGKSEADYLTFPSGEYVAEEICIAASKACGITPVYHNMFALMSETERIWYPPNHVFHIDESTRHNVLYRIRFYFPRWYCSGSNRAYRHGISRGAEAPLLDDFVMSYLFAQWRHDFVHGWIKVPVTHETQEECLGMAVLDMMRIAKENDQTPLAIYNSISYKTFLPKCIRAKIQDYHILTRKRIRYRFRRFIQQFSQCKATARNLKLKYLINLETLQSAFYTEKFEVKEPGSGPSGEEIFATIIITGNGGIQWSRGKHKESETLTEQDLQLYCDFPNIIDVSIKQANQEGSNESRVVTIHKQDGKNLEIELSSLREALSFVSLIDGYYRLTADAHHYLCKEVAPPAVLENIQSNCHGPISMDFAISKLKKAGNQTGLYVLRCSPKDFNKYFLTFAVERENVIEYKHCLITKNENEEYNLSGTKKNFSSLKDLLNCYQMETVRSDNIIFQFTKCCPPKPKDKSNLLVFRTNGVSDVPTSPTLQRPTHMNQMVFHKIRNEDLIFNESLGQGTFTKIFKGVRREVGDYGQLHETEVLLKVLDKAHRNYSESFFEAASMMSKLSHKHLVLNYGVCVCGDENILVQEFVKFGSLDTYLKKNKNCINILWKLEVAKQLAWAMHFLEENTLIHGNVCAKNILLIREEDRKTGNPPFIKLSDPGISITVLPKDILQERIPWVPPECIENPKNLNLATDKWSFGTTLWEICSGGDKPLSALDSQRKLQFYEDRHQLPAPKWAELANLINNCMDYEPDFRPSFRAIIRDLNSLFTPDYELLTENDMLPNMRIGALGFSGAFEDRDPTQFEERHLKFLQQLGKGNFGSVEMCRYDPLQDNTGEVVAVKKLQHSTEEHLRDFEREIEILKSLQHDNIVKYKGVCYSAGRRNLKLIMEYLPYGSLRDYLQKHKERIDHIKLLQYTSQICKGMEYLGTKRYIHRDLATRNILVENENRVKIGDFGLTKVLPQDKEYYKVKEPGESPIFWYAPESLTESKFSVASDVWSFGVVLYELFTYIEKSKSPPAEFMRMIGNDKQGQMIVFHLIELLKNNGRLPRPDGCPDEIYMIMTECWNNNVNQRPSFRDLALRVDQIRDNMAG

[4] = biological target: Dual specificity mitogen-activated protein kinase kinase 2 (Homo sapiens) (UniProt P36507); experiment: Selectivity interaction (ActivX KiNativ screen (kinase selectivity in THP-1 cell lysates)) EUB0000639a MAP2K2; assay type: subcellular; conditions: lysate, at 1 µM
Dual specificity mitogen-activated protein kinase kinase 2 (Homo sapiens), sequence (P36507 whole entry): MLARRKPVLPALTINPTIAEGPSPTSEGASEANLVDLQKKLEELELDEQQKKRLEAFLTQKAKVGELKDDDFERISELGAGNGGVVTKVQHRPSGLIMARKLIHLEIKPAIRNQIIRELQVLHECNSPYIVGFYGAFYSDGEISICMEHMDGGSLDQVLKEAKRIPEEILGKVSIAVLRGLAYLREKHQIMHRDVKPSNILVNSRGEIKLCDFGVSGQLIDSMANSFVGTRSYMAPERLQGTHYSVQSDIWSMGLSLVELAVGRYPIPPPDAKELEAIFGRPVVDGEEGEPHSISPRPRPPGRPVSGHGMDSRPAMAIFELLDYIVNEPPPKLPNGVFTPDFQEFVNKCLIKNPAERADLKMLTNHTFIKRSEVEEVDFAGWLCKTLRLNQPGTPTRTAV

[5] = biological target: T2, Cyclin-dependent kinase 11A (Homo sapiens) (UniProt Q9UQ88); experiment: Selectivity interaction (Ambit KINOMEscan and KiNATiv profiling in Jurkat cells) EUB0000090b CDK11A; assay type: cell-based; conditions: at 1 µM
T2 sequence (whole entry): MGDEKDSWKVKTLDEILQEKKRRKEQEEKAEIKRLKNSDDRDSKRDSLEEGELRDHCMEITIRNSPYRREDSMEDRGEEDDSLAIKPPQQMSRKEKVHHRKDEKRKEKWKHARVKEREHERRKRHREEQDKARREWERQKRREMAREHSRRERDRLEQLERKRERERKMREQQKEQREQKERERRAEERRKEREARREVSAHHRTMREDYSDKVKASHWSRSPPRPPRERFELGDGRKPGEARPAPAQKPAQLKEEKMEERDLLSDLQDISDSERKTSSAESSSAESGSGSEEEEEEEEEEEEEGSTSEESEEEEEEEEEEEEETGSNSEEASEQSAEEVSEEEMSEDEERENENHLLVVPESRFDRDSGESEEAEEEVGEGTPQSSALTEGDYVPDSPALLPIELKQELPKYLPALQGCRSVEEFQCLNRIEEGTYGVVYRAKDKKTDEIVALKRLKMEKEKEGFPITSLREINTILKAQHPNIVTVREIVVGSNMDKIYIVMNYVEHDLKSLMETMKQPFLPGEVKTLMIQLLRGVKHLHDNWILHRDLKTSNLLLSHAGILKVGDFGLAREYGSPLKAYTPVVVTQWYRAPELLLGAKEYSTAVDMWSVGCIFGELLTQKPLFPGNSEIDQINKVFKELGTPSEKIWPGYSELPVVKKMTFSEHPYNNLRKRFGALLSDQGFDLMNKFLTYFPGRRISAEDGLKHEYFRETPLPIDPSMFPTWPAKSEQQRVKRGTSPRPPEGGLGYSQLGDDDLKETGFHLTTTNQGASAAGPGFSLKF

[6] = biological target: Dual specificity protein kinase CLK4 (Homo sapiens, UniProt Q9HAZ1); experiment: Selectivity interaction (KinomeScan (DiscoverX)) EUB0000618a CLK4; conditions: at 10 µM
Dual specificity protein kinase CLK4, sequence (Q9HAZ1 whole entry, looked up): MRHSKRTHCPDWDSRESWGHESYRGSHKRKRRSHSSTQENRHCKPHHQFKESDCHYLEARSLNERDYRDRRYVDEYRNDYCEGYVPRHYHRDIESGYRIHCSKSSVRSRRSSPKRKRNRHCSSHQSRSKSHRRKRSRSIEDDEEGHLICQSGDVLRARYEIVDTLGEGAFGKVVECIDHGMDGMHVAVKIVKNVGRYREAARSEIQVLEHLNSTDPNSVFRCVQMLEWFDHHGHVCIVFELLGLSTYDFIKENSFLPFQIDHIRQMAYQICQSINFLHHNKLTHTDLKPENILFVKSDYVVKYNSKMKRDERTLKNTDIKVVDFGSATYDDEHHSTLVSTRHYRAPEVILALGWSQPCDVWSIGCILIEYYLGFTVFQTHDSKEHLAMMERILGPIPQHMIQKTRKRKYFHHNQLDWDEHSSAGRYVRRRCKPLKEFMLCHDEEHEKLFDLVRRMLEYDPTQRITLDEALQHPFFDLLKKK

[7] = biological target: cAMP-dependent protein kinase catalytic subunit beta (Homo sapiens) (UniProt P22694); conditions: at 10 µM
[8] = system: Proto-oncogene tyrosine-protein kinase receptor Ret (Homo sapiens), P07949 [V804M]; experiment: (§1) Selectivity interaction (KinomeScan (DiscoverX)) EUB0001619a RET; conditions: at 1 µM
Proto-oncogene tyrosine-protein kinase receptor Ret (Homo sapiens), P07949 [V804M], sequence (P07949 whole entry V804M): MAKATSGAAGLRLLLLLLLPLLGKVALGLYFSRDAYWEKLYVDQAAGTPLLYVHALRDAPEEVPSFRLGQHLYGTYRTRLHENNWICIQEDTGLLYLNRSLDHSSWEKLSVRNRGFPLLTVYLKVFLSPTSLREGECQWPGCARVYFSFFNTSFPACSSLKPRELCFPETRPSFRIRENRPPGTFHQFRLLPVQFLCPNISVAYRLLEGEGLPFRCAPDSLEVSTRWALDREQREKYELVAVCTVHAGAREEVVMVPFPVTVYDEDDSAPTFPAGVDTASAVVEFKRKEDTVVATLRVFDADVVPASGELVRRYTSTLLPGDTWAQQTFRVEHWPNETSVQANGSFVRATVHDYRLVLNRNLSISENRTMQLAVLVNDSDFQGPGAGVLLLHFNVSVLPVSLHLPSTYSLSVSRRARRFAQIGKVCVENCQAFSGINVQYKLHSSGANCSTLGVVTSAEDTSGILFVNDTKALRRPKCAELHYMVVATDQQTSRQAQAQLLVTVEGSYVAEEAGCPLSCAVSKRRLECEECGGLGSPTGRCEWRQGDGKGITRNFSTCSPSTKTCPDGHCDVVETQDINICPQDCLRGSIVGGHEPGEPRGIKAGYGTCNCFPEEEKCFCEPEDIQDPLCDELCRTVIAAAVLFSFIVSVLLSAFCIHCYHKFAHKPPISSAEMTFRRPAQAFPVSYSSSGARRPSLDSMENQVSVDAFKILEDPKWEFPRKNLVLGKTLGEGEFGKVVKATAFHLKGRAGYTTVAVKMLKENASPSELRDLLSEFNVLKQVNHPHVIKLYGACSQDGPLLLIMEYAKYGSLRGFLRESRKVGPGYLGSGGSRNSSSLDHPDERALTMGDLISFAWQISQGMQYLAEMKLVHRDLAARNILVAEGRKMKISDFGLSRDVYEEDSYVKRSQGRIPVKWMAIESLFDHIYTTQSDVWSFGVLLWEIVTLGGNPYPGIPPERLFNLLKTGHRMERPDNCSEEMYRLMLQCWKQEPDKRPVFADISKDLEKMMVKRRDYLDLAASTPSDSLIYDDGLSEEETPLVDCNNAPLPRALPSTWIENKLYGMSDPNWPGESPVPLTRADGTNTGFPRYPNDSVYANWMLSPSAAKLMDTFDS

[9] = system: Proto-oncogene tyrosine-protein kinase receptor Ret (Homo sapiens), P07949 [M918T]; experiment: as §1; conditions: at 1 µM
Proto-oncogene tyrosine-protein kinase receptor Ret (Homo sapiens), P07949 [M918T], sequence (P07949 whole entry M918T): as the sequence (P07949 whole entry V804M) above, with M804V, M918T counted along it

[10] = biological target: Proto-oncogene tyrosine-protein kinase receptor Ret (Homo sapiens, UniProt P07949); experiment: as §1; conditions: at 1 µM
Proto-oncogene tyrosine-protein kinase receptor Ret, sequence (P07949 whole entry): as the sequence (P07949 whole entry V804M) above, with M804V counted along it

[11] = system: Proto-oncogene tyrosine-protein kinase receptor Ret (Homo sapiens), P07949 [V804L]; experiment: as §1; conditions: at 1 µM
Proto-oncogene tyrosine-protein kinase receptor Ret (Homo sapiens), P07949 [V804L], sequence (P07949 whole entry V804L): as the sequence (P07949 whole entry V804M) above, with M804L counted along it

[12] = biological target: T3, Mitogen-activated protein kinase kinase kinase 7 (Homo sapiens) (UniProt O43318); experiment: Selectivity interaction (KinomeScan (DiscoverX)) EUB0000607a MAP3K7; conditions: at 10 µM
T3 sequence (whole entry): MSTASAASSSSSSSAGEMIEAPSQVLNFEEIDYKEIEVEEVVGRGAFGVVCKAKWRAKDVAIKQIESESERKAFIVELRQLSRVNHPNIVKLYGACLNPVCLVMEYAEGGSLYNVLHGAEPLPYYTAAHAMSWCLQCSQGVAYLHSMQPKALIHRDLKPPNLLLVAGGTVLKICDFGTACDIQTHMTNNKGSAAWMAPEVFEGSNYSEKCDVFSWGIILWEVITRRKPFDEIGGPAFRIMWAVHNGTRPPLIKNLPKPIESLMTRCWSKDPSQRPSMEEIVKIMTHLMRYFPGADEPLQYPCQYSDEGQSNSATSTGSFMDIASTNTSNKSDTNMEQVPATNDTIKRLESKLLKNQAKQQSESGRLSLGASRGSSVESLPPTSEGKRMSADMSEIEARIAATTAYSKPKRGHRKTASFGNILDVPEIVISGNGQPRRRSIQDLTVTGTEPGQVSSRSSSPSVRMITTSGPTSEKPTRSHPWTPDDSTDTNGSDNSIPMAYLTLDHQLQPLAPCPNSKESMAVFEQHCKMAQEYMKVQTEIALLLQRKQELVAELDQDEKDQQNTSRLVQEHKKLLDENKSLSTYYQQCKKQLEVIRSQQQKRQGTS

Calcium/calmodulin-dependent protein kinase kinase 2 (Homo sapiens), sequence (Q96RR4 2-588 limits assumed): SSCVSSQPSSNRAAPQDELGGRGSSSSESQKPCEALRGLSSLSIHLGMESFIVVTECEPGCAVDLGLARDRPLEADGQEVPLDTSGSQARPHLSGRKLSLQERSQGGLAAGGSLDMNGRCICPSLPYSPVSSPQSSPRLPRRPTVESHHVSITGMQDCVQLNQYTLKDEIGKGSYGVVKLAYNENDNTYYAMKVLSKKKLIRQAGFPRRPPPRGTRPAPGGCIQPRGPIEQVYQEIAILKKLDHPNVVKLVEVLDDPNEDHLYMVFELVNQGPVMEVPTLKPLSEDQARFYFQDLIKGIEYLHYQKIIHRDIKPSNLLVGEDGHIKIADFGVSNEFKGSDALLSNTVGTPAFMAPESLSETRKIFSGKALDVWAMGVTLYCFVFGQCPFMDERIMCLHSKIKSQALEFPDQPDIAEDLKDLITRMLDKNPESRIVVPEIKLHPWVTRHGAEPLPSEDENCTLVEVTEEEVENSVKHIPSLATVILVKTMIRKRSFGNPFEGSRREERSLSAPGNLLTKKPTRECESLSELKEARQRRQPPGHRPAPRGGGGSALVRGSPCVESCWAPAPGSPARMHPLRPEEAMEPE

Question: How did the % of inhibition [1] turn out when `CN1Cc2nccc(-c3cn(C)nc3-c3ccc(F)cc3)c2C1=O` was run?
Answer: -3%

Question: How did the % of control [2] turn out when `O=C(NOC[C@H](O)CO)c1ccc(F)c(F)c1Nc1ccc(I)cc1F` was run?
Answer: 100%

Question: `CC(C)(O)[C@H](F)CN1Cc2cc(NC(=O)c3cnn4cccnc34)c(N3CCOCC3)cc2C1=O` was tested. Which EC50 [3] did it give?
Answer: > 50 µM

Question: `CC[C@@H]1[C@H](F)C(=O)N[C@@H]1COc1nccc2cc(C(N)=O)c(OC)cc12` [ZIMLOVISERTIB] was tested. Which % of inhibition [4] did it give?
Answer: -10.2%

Question: `CN(C)C/C=C/C(=O)Nc1ccc(C(=O)N2CCCC(Nc3ncc(Cl)c(-c4c[nH]c5ccccc45)n3)C2)cc1` (configuration not stated) was tested. Which % of control [5] did it give?
Answer: 95%

Question: For `O[C@H]1CC[C@H](Nc2ncc3nc(Nc4c(F)cc(F)cc4F)n([C@H]4CCOC4)c3n2)CC1`, which % of control [6] is on record?
Answer: 100%

Question: Which % of control [7] does the source give for `Cc1cc([C@@H](C)Nc2ccccc2C(=O)O)c2nc(N3CCOCC3)cc(=O)n2c1` [AZD-6482] here?
Answer: 100%

Question: Which results are given for `N#Cc1cccc(-c2c[nH]c3ncnc(N4CCOCC4)c23)c1`?
Answer: % of control [8]: 58%; % of control [9]: 70%; % of control [10]: 78%; % of control [11]: 95%

Question: With `CNC(=O)Nc1ccc(-c2nc(N3CC4CCC(C3)O4)c3cnn(C4CCC5(CC4)OCCO5)c3n2)cc1` as the compound, how does the % of control [12] read?
Answer: 98%
